Data from US10618901B2 (GlaxoSmithKline Intellectual Property Development Limited, priority 2014, dated 2020).

biological target: T1, LRRK2 Ser935 phosphorylation in SH-SY5Y cells over-expressing recombinant full length LRRK2 (Homo sapiens, UniProt Q5S007); test: Recombinant cellular LRRK2 AlphaScreen assay; assay type: cell-based; details: read-out: pIC50 in the recombinant cellular LRRK2 alphaScreen assay (converted)
T1 construct: A BacMam virus expressing full length recombinant LRRK2 was purchased from Invitrogen; host or cells: SH-SY5Y (BacMam transduction)
Source text: Recombinant Cellular LRRK2 AlphaScreen Assay
To determine the activity of compounds against LRRK2 kinase activity in cells, the observed LRRK2 kinase-dependent modulation of LRRK2 Ser 935 phosphorylation (Dzamko et al., 2010, Biochem. J. 430: 405-413) was utilized to develop a quantitative 384 well plate-based immunoassay of LRRK2 Ser935 phosphorylation in the human neuroblastoma cell line SH-SY5Y, engineered to over-express recombinant full length LRRK2 protein.
A BacMam virus expressing full length recombinant LRRK2 was purchased from Invitrogen and amplified by inoculation of SF-9 cells at MOI 0.3 for 4-5 days in Sf-900 III SFM medium supplemented with 3% fetal bovine serum. Infected cell cultures were then centrifuged at 2000 g for 20 minutes, viral supernatant titer determined by anti-gp64 plaque assay and stored at 4° C.
Affinity-purified anti-phospho LRRK2 Ser935 sheep polyclonal antibody (Dzamko et al., 2010, Biochem. J. 430: 405-413) was biotinylated by standard methods (PerkinElmer). Anti-LRRK2 rabbit polyclonal antibody was purchased from Novus Biologicals. AlphaScreen Protein A IgG Kit (including acceptor and donor beads) was purchased from Perkin Elmer.
SH-SY5Y cells were grown in DMEM/F12 medium with 10% dialysed fetal bovine serum and harvested by treatment with 0.5% trypsin-EDTA for 5 minutes at 37° C. followed by centrifugation at 1000 rpm for 4 minutes. The cell pellet was resuspended in Opti-MEM reduced serum media (Invitrogen) at 200,000 cells/ml and mixed with the BacMam LRRK2 virus at M01=50. 50 μl cell solutions were then dispensed to each well of a 384-well plate and incubated at 37° C., 5% CO2 for 24 hours.
Serial dilutions of test compounds were prepared in Opti-MEM reduced serum media (Invitrogen) and 5.6 ul transferred from compound plate to cell assay plate to achieve a top final assay concentration of 10 uM. DMSO was used in certain wells as controls. Cells were incubated at 37° C., 5% CO2 for 60 minutes. The medium was then removed and cells lysed by addition of 20 ul cell lysis buffer (Cell Signaling Technology) and incubation at 4° C. for 20 minutes. 10 ul of antibody/acceptor bead mix [(1/1000 biotinylated-pS935 LRRK2 antibody, 1/1000 total-LRRK2 antibody, 1/100 Acceptor beads in AlphaScreen detection buffer (25 mM Hepes (pH 7.4), 0.5% Triton X-100, 1 mg/ml Dextran 500 and 0.1% BSA)] was then added to each well and plates incubated for 2 hours at ambient temperature in the dark. 10 μl of donor beads solution (1/33.3 donor beads in AlphaScreen detection buffer) was then added to each well. Following incubation for a further 2 hours at ambient temperature in the dark, plates were read on an EnVision™ plate reader at emission 520-620 nm with excitation 680 nm. Dose response curve data was based on sigmoidal dose-response model.

T1 sequence (Q5S007 whole entry): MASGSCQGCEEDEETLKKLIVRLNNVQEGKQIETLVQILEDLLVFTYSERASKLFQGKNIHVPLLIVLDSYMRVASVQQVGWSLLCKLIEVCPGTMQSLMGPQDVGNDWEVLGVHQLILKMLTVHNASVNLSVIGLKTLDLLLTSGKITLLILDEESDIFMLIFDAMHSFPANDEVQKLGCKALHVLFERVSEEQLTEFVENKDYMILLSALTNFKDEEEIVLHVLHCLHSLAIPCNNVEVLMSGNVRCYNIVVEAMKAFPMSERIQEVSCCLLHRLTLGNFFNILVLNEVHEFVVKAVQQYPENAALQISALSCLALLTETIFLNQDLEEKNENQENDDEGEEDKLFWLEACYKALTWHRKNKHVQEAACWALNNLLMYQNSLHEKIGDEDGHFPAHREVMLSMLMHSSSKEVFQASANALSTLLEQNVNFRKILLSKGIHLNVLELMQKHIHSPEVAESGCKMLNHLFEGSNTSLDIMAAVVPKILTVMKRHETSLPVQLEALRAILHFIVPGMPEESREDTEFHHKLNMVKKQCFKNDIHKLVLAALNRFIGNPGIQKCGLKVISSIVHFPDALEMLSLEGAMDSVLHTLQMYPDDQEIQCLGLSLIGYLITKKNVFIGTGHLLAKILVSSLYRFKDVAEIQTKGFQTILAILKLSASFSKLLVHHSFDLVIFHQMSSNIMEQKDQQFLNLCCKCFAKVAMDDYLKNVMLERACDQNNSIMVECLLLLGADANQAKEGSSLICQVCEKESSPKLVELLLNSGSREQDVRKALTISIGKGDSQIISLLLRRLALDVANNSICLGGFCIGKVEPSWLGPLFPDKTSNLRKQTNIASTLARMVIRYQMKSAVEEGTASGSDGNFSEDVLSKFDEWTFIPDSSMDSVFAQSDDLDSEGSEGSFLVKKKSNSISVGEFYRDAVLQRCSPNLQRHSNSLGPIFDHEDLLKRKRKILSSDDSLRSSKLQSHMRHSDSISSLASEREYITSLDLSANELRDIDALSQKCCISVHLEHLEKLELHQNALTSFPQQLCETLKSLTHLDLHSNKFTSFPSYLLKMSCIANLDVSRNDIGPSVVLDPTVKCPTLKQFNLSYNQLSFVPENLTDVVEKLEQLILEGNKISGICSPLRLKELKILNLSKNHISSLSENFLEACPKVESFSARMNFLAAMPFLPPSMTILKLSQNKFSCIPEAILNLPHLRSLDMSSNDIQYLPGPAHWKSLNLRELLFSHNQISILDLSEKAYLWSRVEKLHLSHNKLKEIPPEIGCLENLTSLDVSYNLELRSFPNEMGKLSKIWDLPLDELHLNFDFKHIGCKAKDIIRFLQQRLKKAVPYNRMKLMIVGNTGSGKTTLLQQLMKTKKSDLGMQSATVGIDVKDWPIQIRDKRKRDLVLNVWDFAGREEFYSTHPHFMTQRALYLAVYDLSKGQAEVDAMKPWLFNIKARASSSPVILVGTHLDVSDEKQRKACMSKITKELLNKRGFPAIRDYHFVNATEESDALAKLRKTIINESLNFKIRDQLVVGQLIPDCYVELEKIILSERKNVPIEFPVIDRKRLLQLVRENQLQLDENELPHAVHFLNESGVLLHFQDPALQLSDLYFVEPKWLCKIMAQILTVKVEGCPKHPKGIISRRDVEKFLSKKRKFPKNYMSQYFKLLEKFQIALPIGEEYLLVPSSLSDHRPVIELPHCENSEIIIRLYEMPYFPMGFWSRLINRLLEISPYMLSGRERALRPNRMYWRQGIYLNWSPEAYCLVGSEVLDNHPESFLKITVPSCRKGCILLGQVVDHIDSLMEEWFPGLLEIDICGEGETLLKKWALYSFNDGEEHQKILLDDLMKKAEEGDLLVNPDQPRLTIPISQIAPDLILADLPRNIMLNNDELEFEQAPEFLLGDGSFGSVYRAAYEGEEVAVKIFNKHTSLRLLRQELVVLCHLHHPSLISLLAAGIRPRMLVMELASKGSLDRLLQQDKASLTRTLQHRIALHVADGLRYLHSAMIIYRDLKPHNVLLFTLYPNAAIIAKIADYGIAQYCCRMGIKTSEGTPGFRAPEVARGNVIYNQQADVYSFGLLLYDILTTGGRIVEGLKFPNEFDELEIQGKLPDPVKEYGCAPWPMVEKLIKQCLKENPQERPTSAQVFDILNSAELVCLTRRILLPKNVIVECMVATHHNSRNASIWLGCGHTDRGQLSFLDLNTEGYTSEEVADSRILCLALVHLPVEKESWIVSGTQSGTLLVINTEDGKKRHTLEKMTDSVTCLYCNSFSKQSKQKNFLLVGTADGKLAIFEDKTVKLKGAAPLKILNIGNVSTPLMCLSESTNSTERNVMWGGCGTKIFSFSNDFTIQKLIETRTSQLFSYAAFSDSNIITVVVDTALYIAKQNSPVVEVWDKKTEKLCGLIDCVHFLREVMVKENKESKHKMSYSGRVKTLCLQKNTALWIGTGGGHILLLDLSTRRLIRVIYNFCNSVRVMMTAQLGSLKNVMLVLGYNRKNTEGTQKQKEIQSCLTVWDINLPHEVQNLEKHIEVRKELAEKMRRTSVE

Structure (SMILES) | IC50 [nM]
CCOc1nc(Nc2cn(CCF)nc2C)nc2[nH]ccc12 [Example E27, 4-ethoxy-N-(1-(2-fluoroethyl)-3-methyl-1H-pyrazol-4-yl)-7H-pyrrolo-[2,3-d]-pyrimidin-2-amine] | ≤ 100
CCOc1nc(Nc2cnn(C3CCCC3O)c2C)nc2[nH]ccc12 (racemic) [Example E39, (±)-2-(4-((4-ethoxy-7H-pyrrolo[2,3-d]pyrimidin-2-yl)amino)-5-methyl-1H-pyrazol-1-yl)cyclopentanol] | ≤ 100
CCOc1nc(Nc2cnn(C3CCC(O)C3)c2Cl)nc2[nH]ccc12 (racemic) [Example E101, (±)-trans-3-(5-chloro-4-((4-ethoxy-7H-pyrrolo[2,3-d]pyrimidin-2-yl)amino)-1H-pyrazol-1-yl) cyclopentanol] | ≤ 100
CCOc1nc(Nc2cnn(CC(C)(C)N3CCOCC3)c2C)nc2[nH]ccc12 [Example E88, 4-ethoxy-N-(5-methyl-1-(2-methyl-2-morpholinopropyl)-1H-pyrazol-4-yl)-7H-pyrrolo[2,3-d]pyrimidin-2-amine] | ≤ 100
CCOc1nc(Nc2cnn(CCF)c2C)nc2[nH]cc(C#N)c12 [Example E50, 4-ethoxy-2-((1-(2-fluoroethyl)-5-methyl-1H-pyrazol-4-yl)-amino)-7H-pyrrolo-[2,3-d]-pyrimidine-5-carbonitrile] | ≤ 100
CCOc1nc(Nc2cnn(C3CC(C)(O)C3)c2C)nc2[nH]ccc12 (stereo not shown) [Example E93, 3-(4-((4-ethoxy-7H-pyrrolo[2,3-d]pyrimidin-2-yl)amino)-5-methyl-1H-pyrazol-1-yl)-1-methylcyclobutanol] | ≤ 100
CCOc1nc(Nc2cnn([C@@H]3CCCN(C4COC4)C3)c2C)nc2[nH]ccc12 [Example E135, (R)-4-ethoxy-N-(5-methyl-1-(1-(oxetan-3-yl)piperidin-3-yl)-1H-pyrazol-4-yl)-7H-pyrrolo [2,3-d]pyrimidin-2-amine] | ≤ 100
CCOc1nc(Nc2cnn(CCN3CCO[C@@H](C(F)F)C3)c2C)nc2[nH]ccc12 [Example E99, (R)—N-(1-(2-(2-(difluoromethyl)morpholino)ethyl)-5-methyl-1H-pyrazol-4-yl)-4-ethoxy-7H-pyrrolo[2,3-d]pyrimidin-2-amine] | ≤ 100
CCOc1nc(Nc2cnn(C3CCOCC3)c2C)nc2[nH]cc(C#N)c12 [Example E46, 4-ethoxy-2-((5-methyl-1-(tetrahydro-2H-pyran-4-yl)-1H-pyrazol-4-yl)-amino)-7H-pyrrolo-[2,3-d]-pyrimidine-5-carbonitrile] | ≤ 100
CCOc1nc(Nc2cnn(C3CCCC3(C)O)c2C)nc2[nH]ccc12 (single isomer, unassigned) [Example E77, trans-2-(4-((4-ethoxy-7H-pyrrolo-[2,3-d]pyrimidin-2-yl)amino)-5-methyl-1H-pyrazol-1-yl)-1-methylcyclopentanol] | ≤ 100
CCOc1nc(Nc2cn(C)nc2C)nc2[nH]ccc12 [Example E1, N-(1,3-dimethyl-1H-pyrazol-4-yl)-4-ethoxy-7H-pyrrolo[2,3-d]pyrimidin-2-amine] | ≤ 100
CCOc1nc(Nc2cnn(C3CCOCC3)c2C)nc2[nH]ccc12 [Example E11, 4-ethoxy-N-(5-methyl-1-(tetrahydro-2H-pyran-4-yl)-1H-pyrazol-4-yl)-7H-pyrrolo-[2,3-d]-pyrimidin-2-amine] | ≤ 100
CCOc1nc(Nc2cnn(CCOC)c2C)nc2[nH]cc(C#N)c12 [Example E47, 4-ethoxy-2-((1-(2-methoxyethyl)-5-methyl-1H-pyrazol-4-yl)-amino)-7H-pyrrolo-[2,3-d]-pyrimidine-5-carbonitrile] | ≤ 100
CCOc1nc(Nc2cnn(C3CCN(C4COC4)CC3F)c2C)nc2[nH]ccc12 (single isomer, unassigned) [Example E102, cis-4-ethoxy-N-(1-(3-fluoro-1-(oxetan-3-yl)piperidin-4-yl)-5-methyl-1H-pyrazol-4-yl)-7H-pyrrolo[2,3-d]pyrimidin-2-amine] | ≤ 100
CCOc1nc(Nc2cnn([C@H]3CCN(CC(F)F)C3)c2C)nc2[nH]ccc12 [Example E87, (S)—N-(1-(1-(2,2-difluoroethyl)pyrrolidin-3-yl)-5-methyl-1H-pyrazol-4-yl)-4-ethoxy-7H-pyrrolo[2,3-d]pyrimidin-2-amine] | ≤ 100
CCOc1nc(Nc2cnn(CCN3CC[C@@H](F)C3)c2C)nc2[nH]ccc12 [Example E63, (R)-4-ethoxy-N-(1-(2-(3-fluoropyrrolidin-1-yl)-ethyl)-5-methyl-1H-pyrazol-4-yl)-7H-pyrrolo[2,3-d]pyrimidin-2-amine] | ≤ 100
CCOc1nc(Nc2cnn(CCN3CC[C@H](F)C3)c2C)nc2[nH]ccc12 [Example E64, (S)-4-ethoxy-N-(1-(2-(3-fluoropyrrolidin-1-yl)ethyl)-5-methyl-1H-pyrazol-4-yl)-7H-pyrrolo[2,3-d]pyrimidin-2-amine] | ≤ 100
CCOc1nc(Nc2cnn(C3CCN(C4COC4)C3)c2C)nc2[nH]ccc12 (stereo not shown) [Example E66, 4-Ethoxy-N-(5-methyl-1-(1-(oxetan-3-yl)pyrrolidin-3-yl)-1H-pyrazol-4-yl)-7H-pyrrolo[2,3-d]pyrimidin-2-amine] | ≤ 100
CCOc1nc(Nc2cnn(C3CCN(C)CC3)c2C)nc2[nH]ccc12 [Example E18, 4-ethoxy-N-(5-methyl-1-(1-methylpiperidin-4-yl)-1H-pyrazol-4-yl)-7H-pyrrolo-[2,3-d]-pyrimidin-2-amine] | ≤ 100
CCOc1nc(Nc2cnn(C3COC3)c2C)nc2[nH]ccc12 [Example E34, 4-ethoxy-N-(5-methyl-1-(oxetan-3-yl)-1H-pyrazol-4-yl)-7H-pyrrolo[2,3-d]pyrimidin-2-amine] | ≤ 100
CCOc1nc(Nc2cnn(C3(C)CC(N4CCOCC4)C3)c2C)nc2[nH]ccc12 (stereo not shown) [Example E137, 4-ethoxy-N-(5-methyl-1-(1-methyl-3-morpholinocyclobutyl)-1H-pyrazol-4-yl)-7H-pyrrolo[2,3-d]pyrimidin-2-amine] | ≤ 100
CCOc1nc(Nc2cnn(C3CCOC3)c2C)nc2[nH]ccc12 (single isomer, unassigned) [Example E16, 4-ethoxy-N-(5-methyl-1-(tetrahydrofuran-3-yl)-1H-pyrazol-4-yl)-7H-pyrrolo-[2,3-d]-pyrimidin-2-amine] | ≤ 100
CCOc1nc(Nc2cnn(C3CN(C4COC4)CCC3(F)F)c2Cl)nc2[nH]ccc12 (single isomer, unassigned) [Example E123, N-(5-chloro-1-(4,4-difluoro-1-(oxetan-3-yl)piperidin-3-yl)-1H-pyrazol-4-yl)-4-ethoxy-7H-pyrrolo[2,3-d]pyrimidin-2-amine] | ≤ 100
CCOc1nc(Nc2cnn(C(C)(C)CO)c2C)nc2[nH]ccc12 [Example E65, 2-(4-((4-ethoxy-7H-pyrrolo-[2,3-d]pyrimidin-2-yl)amino)-5-methyl-1H-pyrazol-1-yl)-2-methylpropan-1-ol] | ≤ 100
CCOc1nc(Nc2cnn(C(C)(C)C#N)c2C)nc2[nH]ccc12 [Example E96, 2-(4-((4-ethoxy-7H-pyrrolo[2,3-d]pyrimidin-2-yl)amino)-5-methyl-1H-pyrazol-1-yl)-2-methylpropanenitrile] | ≤ 100
CCOc1nc(Nc2cnn(C3CCOCC3F)c2C)nc2[nH]ccc12 (single isomer, unassigned) [Example E128, (cis)-4-ethoxy-N-(1-(3-fluorotetrahydro-2H-pyran-4-yl)-5-methyl-1H-pyrazol-4-yl)-7H-pyrrolo[2,3-d]pyrimidin-2-amine] | ≤ 100
CCOc1nc(Nc2cnn([C@@H]3CCN(C4COC4)C[C@H]3F)c2C)nc2[nH]ccc12 [Example E98, 4-ethoxy-N-(1-((3R,4R)-3-fluoro-1-(oxetan-3-yl)piperidin-4-yl)-5-methyl-1H-pyrazol-4-yl)-7H-pyrrolo[2,3-d]pyrimidin-2-amine] | ≤ 100
CCOc1nc(Nc2cnn(C3CCN(C4COC4)CC3)c2C)nc2[nH]ccc12 [Example E53, 4-ethoxy-N-(5-methyl-1-(1-(oxetan-3-yl)-piperidin-4-yl)-1H-pyrazol-4-yl)-7H-pyrrolo-[2,3-d]-pyrimidin-2-amine] | ≤ 100
